Tests used:
Experiment in all cases: fitness (endpoint OD595 vs no drug) (fraction); higher = more growth
[1] = tested on: S. pneumoniae D39V
In short: (§1)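 Fitness expresses the optical density reached at the stationary-phase transition as a fraction of the robust mean of no-drug control wells. It is capped at 1. Measurements were OD595 every 30 min for 14 h at 37 °C after inoculation of 384-well plates at OD595 0.01 (30 µl, or 55 µl for S. pneumoniae), minus the first reading.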

[2] = tested on: S. aureus Newman
In short: as §1

[3] = tested on: B. subtilis 168
In short: as §1

[4] = tested on: S. aureus DSM 20231
In short: as §1
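Further: OD595 on entry to stationary phase over no-drug wells; at most 1.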

O=C(O)[C@H]1/C(=C/CO)O[C@@H]2CC(=O)N21 [Clavulanic acid] + O=C(O[C@@H]1Cc2c(O)cc(O)cc2O[C@@H]1c1cc(O)c(O)c(O)c1)c1cc(O)c(O)c(O)c1 [EGCG]
fitness
Details	partner 6.25 µg/mL	partner 12.5 µg/mL	partner 25 µg/mL	partner 50 µg/mL
[1], first compound 0.5 µg/mL	–	0.958	0.96	0.939
[1], first compound 1 µg/mL	–	0.889	0.931	0.93
[1], first compound 2 µg/mL	–	0.817	0.829	0.816
[3], first compound 1.5 µg/mL	0.884	–	–	–
[3], first compound 3 µg/mL	0.835	–	–	–
[3], first compound 6 µg/mL	0.715	–	0.272	–

fitness, [2], one replicate
Details	first compound 0.03125 µg/mL	first compound 0.0625 µg/mL	first compound 0.125 µg/mL
partner 12.5 µg/mL	0.846	0.892	0.824
partner 25 µg/mL	0.821	0.874	0.812
partner 50 µg/mL	0.75	0.733	0.73

CC[C@H]1OC(=O)[C@H](C)[C@@H](O[C@H]2C[C@@](C)(OC)[C@@H](O)[C@H](C)O2)[C@H](C)[C@@H](O[C@@H]2O[C@H](C)C[C@H](N(C)C)[C@H]2O)[C@](C)(O)C[C@@H](C)CN(C)[C@H](C)[C@@H](O)[C@]1(C)O [Azithromycin] + N[C@@H]1CONC1=O [Cycloserine D]
fitness
Details	first compound 0.125 µg/mL	first compound 0.25 µg/mL	first compound 0.5 µg/mL
[2], partner 0.375 µg/mL	0.887	0.868	0.674
[2], partner 0.75 µg/mL	0.906	0.908	–
[2], partner 1.5 µg/mL	0.898	0.905	0.665
[3], partner 0.125 µg/mL	–	0.946	0.884
[3], partner 0.25 µg/mL	–	0.918	0.854
[3], partner 0.5 µg/mL	–	0.892	0.826
[4], partner 0.375 µg/mL	0.935	0.881	–
[4], partner 0.75 µg/mL	0.887	0.869	–
[4], partner 1.5 µg/mL	0.948	0.881	–

[3], first compound 2 µg/mL, one replicate
Details	fitness
partner 0.125 µg/mL	0.348
partner 0.25 µg/mL	0.0742
partner 0.5 µg/mL	0.066

O=C(O)[C@H]1/C(=C/CO)O[C@@H]2CC(=O)N21 [Clavulanic acid] + CO/N=C(\C(=O)N[C@@H]1C(=O)N2C(C(=O)O)=C(COC(C)=O)CS[C@H]12)c1csc(N)n1 [Cefotaxime]
Details	fitness
[1], first compound 0.5 µg/mL, partner 0.0018 µg/mL	0.99
[1], first compound 0.5 µg/mL, partner 0.0035 µg/mL	0.966
[1], first compound 1 µg/mL, partner 0.0018 µg/mL	0.971
[1], first compound 1 µg/mL, partner 0.0035 µg/mL	0.927
[1], first compound 1 µg/mL, partner 0.007 µg/mL	0.789
[1], first compound 2 µg/mL, partner 0.0018 µg/mL	0.844
[1], first compound 2 µg/mL, partner 0.0035 µg/mL	0.824
[1], first compound 2 µg/mL, partner 0.007 µg/mL	0.582
[3], first compound 1.5 µg/mL, partner 0.5 µg/mL	0.232
[3], first compound 1.5 µg/mL, partner 1 µg/mL	0.154
[3], first compound 1.5 µg/mL, partner 2 µg/mL	0.0721
[3], first compound 3 µg/mL, partner 0.5 µg/mL	0.218
[3], first compound 3 µg/mL, partner 1 µg/mL	0.118
[3], first compound 3 µg/mL, partner 2 µg/mL	0.0681
[3], first compound 6 µg/mL, partner 0.5 µg/mL	0.14
[3], first compound 6 µg/mL, partner 1 µg/mL	0.0836
[3], first compound 6 µg/mL, partner 2 µg/mL	0.0583

fitness, one replicate
Details	partner 0.00775 µg/mL	partner 0.0155 µg/mL	partner 0.031 µg/mL	partner 0.0625 µg/mL	partner 0.078 µg/mL	partner 0.125 µg/mL	partner 0.156 µg/mL	partner 0.25 µg/mL	partner 0.312 µg/mL
[2], first compound 0.03125 µg/mL	–	–	–	–	0.994	–	0.8	–	0.807
[2], first compound 0.0625 µg/mL	–	–	–	–	0.898	–	0.741	–	0.683
[2], first compound 0.125 µg/mL	–	–	–	–	0.822	–	0.703	–	0.709
[3], first compound 1.5 µg/mL	0.759	0.65	0.525	0.486	–	0.286	–	0.225	–
[3], first compound 3 µg/mL	0.722	0.593	0.489	0.455	–	0.322	–	0.15	–
[3], first compound 6 µg/mL	0.637	0.467	0.384	0.391	–	0.258	–	0.185	–

Source: the supplement of paper PMC10627819
